According to PubChem BioAssay (NCI):
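Test compounds were applied to cells in 96-well plates for 48 hours at 5 doses. At the GI50, growth is halved. TGI: total growth inhibition.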

Assays:
Experiment in all cases: NCI anticancer screen, dose series, 48 h
[1] = tested on: HOP-92 NSCLC
[2] = tested on: CAKI-1 renal
[3] = tested on: OVCAR-3 ovarian
[4] = tested on: SK-MEL-28 melanoma
[5] = tested on: OVCAR-8 ovarian
[6] = tested on: HL-60(TB) leukemia
[7] = tested on: SF-539 CNS
[8] = tested on: PC-3 prostate
[9] = tested on: HCC-2998 colon
[10] = tested on: HS 578T breast

c1ccc2c(CNCCCCCCCCCCCCNCc3cccc4ccccc34)cccc2c1
TGI [1]: 3.66 µM
TGI [2]: 4.27 µM
TGI [3]: 3.84 µM
TGI [4]: 3.38 µM
TGI [5]: 3.13 µM
TGI [6]: 3.12 µM
TGI [7]: 3 µM

O=c1ccnc(SCc2ccc(Cl)cc2)[nH]1
TGI [1]: > 100 µM
TGI [2]: > 100 µM
TGI [8]: > 100 µM
TGI [3]: > 100 µM
TGI [4]: > 100 µM
TGI [5]: > 100 µM
TGI [9]: 66.2 µM
TGI [10]: > 100 µM
TGI [7]: > 100 µM

CC(CN)[C@@H]1CC[C@]2(CO)CC[C@]3(C)[C@H](CC[C@@H]4[C@@]5(C)CCC(N)C(C)(C)[C@@H]5CC[C@]43C)[C@@H]12 (stereo not given in full)
GI50 [1]: 1.45 µM
TGI [1]: 3.07 µM
GI50 [2]: 1.63 µM
TGI [2]: 3.12 µM
GI50 [8]: 1.74 µM
TGI [8]: 3.31 µM
GI50 [3]: 1.71 µM
TGI [3]: 3.24 µM
GI50 [4]: 1.91 µM
TGI [4]: 3.62 µM
GI50 [5]: 1.92 µM
TGI [5]: 3.36 µM
GI50 [9]: 1.89 µM
TGI [9]: 3.66 µM
GI50 [7]: 1.72 µM
TGI [7]: 3.31 µM

O=C(Cc1ccccc1)NS(=O)(=O)c1ccccc1
TGI [1]: > 100 µM
TGI [2]: > 100 µM
TGI [3]: > 100 µM
TGI [4]: > 100 µM
TGI [5]: > 100 µM
TGI [9]: > 100 µM
TGI [6]: > 100 µM
TGI [7]: > 100 µM

CCOC(=O)C(C(=O)OCC)=c1sc(=C(C(=O)OCC)C(=O)OCC)s1
TGI [1]: > 100 µM
TGI [2]: > 100 µM
TGI [3]: > 100 µM
TGI [4]: > 100 µM
TGI [5]: > 100 µM
TGI [9]: > 100 µM
TGI [6]: > 100 µM

Nc1nc(=Nc2ccccc2)ss1
TGI [1]: > 100 µM
TGI [2]: > 100 µM
TGI [3]: > 100 µM
TGI [4]: > 100 µM
TGI [5]: > 100 µM
TGI [9]: > 100 µM
TGI [6]: 60.2 µM
TGI [7]: > 100 µM

CC1=Nc2ccccc2C12C(c1ccccc1)C(c1ccccc1)C(=O)N1c3ccccc3CC12 (stereo not given)
TGI [1]: > 100 µM
TGI [2]: > 100 µM
TGI [3]: > 100 µM
TGI [4]: > 100 µM
TGI [5]: > 100 µM
TGI [9]: > 100 µM
TGI [6]: > 100 µM
TGI [7]: > 100 µM

CC(C)c1ccc2nc3ccc(C(=O)NCCN4CCN(c5ccccc5)CC4)cn3c(=O)c2c1
TGI [2]: > 100 µM
TGI [3]: > 100 µM
TGI [4]: > 100 µM
TGI [5]: > 100 µM
TGI [9]: > 100 µM
TGI [10]: > 100 µM

C=C[C@H]1C=Cc2c(OC)cccc2[C@@H]1COP1(=S)NC(C)C(c2ccccc2)O1 (stereo not given in full)
TGI [3]: > 100 µM
TGI [4]: > 100 µM
TGI [5]: > 100 µM
TGI [9]: > 100 µM
TGI [6]: 50.2 µM
TGI [7]: > 100 µM

CC(C)(C)c1cc(-c2nc3c(F)c(F)c(F)c(F)c3[nH]2)cc(C(C)(C)C)c1O
GI50 [1]: > 100 µM
TGI [1]: > 100 µM
GI50 [2]: > 100 µM
TGI [2]: > 100 µM
GI50 [8]: > 100 µM
TGI [8]: > 100 µM
GI50 [3]: > 100 µM
TGI [3]: > 100 µM
GI50 [4]: > 100 µM
TGI [4]: > 100 µM
GI50 [5]: > 100 µM
TGI [5]: > 100 µM
GI50 [10]: > 100 µM
TGI [10]: > 100 µM
GI50 [6]: > 100 µM
TGI [6]: > 100 µM
GI50 [7]: > 100 µM
TGI [7]: > 100 µM

COC(=O)Cc1cc(=O)n2c([nH]c3ccccc32)c1C#N
TGI [2]: > 100 µM
TGI [3]: > 100 µM
TGI [4]: > 100 µM
TGI [5]: > 100 µM
TGI [9]: > 100 µM
TGI [6]: > 100 µM
TGI [7]: > 100 µM
